Where two headings read alike, the source gives them in different places.
Assays:
[1] = conscious rats, cited from earlier work
[2] = dog, in vivo, po
Description: (§1) All surgical and experimental procedures were performed in accordance with the guidelines and approval of the local Institutional Animal Experimentation Ethics Committee. Studies were conducted in male greyhound dogs (28-35 kg), and their health status was verified by a veterinarian prior to the study. Prior to surgery, each dog was fed a small lipid meal to facilitate identification of the thoracic duct. […] Each dog received intravenous infusion of Lactated Ringer's solution (300 mL/h) during surgery, and a post-operative injection of antibiotic (cephazolin, 20 mg/kg) and analgesic (carprofen, 4 mg/kg).
(§2) The ventral abdomen was firstly clipped and prepared for aseptic surgery. A 5 cm long ventral midline laparotomy was performed to allow a loop of jejunum to be exteriorised. A 133 mm 16 gauge cannula was then inserted into a jejunal vein to the level of the portal vein. The cannula was stabilised in both the portal and jejunal veins with a ligature of 3/0 silk to the jejunal vein and a minimal volume extension tube, filled with heparinised saline, was then attached and externalised through a separate stab incision in the left flank and stabilised with sutures. The laparotomy wound was closed in anatomical layers with 3/0 polydioxinone sutures. The position of the cannula in the portal vein was confirmed by a portal venogram following a 10 mL injection of a contrast dye (Iohexol), and cannula patency was maintained by small volume flushing with heparinised saline (1 U/mL).
(§3) The left ventral neck area and cranial thorax was clipped and prepared for aseptic surgery. A curved incision was made over the left external jugular vein and the vein was then dissected from the surrounding tissues to the axillary vein. At the junction of the internal jugular and brachiocephalic veins, the thoracic duct ampulla was identified by its whitish appearance This was then ligated at the point of entrance into the brachiocephalic vein and all tributaries converging to the thoracic duct were ligated to ensure the return of lymph through the main lymphatic canal. […]

[3] = Thoracic lymph duct and portal vein cannulated greyhound dog study: lymphatic transport of halofantrine and triglyceride, systemic availability; conditions: fed dogs, IV 2 mg/kg, over 12 h, mean +/- sd, n = 3
Description: as §1, §2, §3

[4] = rats, oral, cited from earlier work
[5] = in soybean oil; cited from earlier work
[6] = rats; cited from earlier work
[7] = rats, soybean emulsion, 24 h post dosing; cited from earlier work
[8] = in vivo; cited from earlier work

## CCCCCCCCCCC(C)(C)C(=O)Nc1c(OC)cc(OC)cc1OC [Cl-976]
[1]; over 14 h
  total amount transported in lymph as percent of dose, lipid-based emulsion compared with suspension: 7 times
[1]
  absolute amount of drug transported lymphatically: < 1%

## CCCCN(CCCC)CCC(O)c1cc2c(Cl)cc(Cl)cc2c2cc(C(F)(F)F)ccc12 (centres unmarked) [Hf base]
[2]
  Cum Hf transport in lymph (% dose): 1.3 +/− 0.7 % dose
  Transport into syst circulation (% dose): 30.2 +/− 18.7 % dose

## CCCCN(CCCC)CCC(O)c1cc2c(Cl)cc(Cl)cc2c2cc(C(F)(F)F)ccc12 (centres unmarked) [Hf, halofantrine]
[3]
  Cum Hf transport in lymph (% dose): 1.5 +/− 0.2 % dose

## CC(C)CCC[C@@H](C)[C@H]1CC[C@H]2[C@@H]3[C@@H](C)C[C@H]4N(C)C(=O)CC[C@]4(C)[C@H]3CC[C@]12C [MK-386]
[4]; 6 h post-dosing
  rank order of total amount transported into the mesenteric lymph by formulation: aqueous suspension>mixed lipid/surfactant system>soybean oil
[4]; all three formulations
  levels of radioactivity in the lymph compared with the portal blood: up to 80 fold
[5]
  lipid solubility: > 80 mg/mL

## COC1(O[C@H]2CC[C@H]3[C@@H]4CC[C@H]5C[C@@H]6S[C@@H]6C[C@]5(C)[C@H]4CC[C@]23C)CCCC1 [mepitiostane]
[6]
  extent of lymphatic transport, polysorbate 80 micellar solution versus triglyceride lipid vehicle: no significant differences

## Cc1ccc2oc(N[C@@H](CC3CCCCC3)c3ccccn3)nc2c1 [ontazolast]
[7]
  total amount of lymphatically transported ontazolast, increase versus aqueous based suspension: ~50 fold

## CCCCCCCCCCCCCCCC(=O)OC/C=C(C)/C=C/C=C(C)/C=C/C1=C(C)CCCC1(C)C [retinyl palmitate]
[8]
  lymphatic transport, aqueous polysorbate 80 micellar solution compared with lipid solution: two-fold increase

— patent publication US20050209345A1, “Lymphatic drug delivery system” (priority 2001, published 2005)
